The record followed here is patent publication US8507484B2, “Preventive and/or therapeutic agent for neutrophilic inflammatory diseases” (Kyowa Hakko Kirin Co., Ltd., priority 2004, dated 2013).

In series [1] the target is T1, human GPR4 (Homo sapiens, UniProt P46093).
T1 construct: expressed in transfected cells; expression induced by 17β-estradiol
The experiment in a line: GPR4 antagonism, luciferase reporter assay in human GPR4 assay cells. Format: cell-based. To be noted: 1 μmol/L test compound, 10 nmol/L 17β-estradiol, 6 hours, firefly luciferase reporter; for inhibition at 1 µM: read-out: Inhibition rate (%). On the procedure: Assay cells for human GPR4 were constructed according to the method descried in WO03/087366. By using the assay cells, the constitutive activity of human GPR4 can be detected by activity of a reporter (firefly luciferase).
Plasmid pAGal9-GPR4 for inducible expression of human GPR4 (2 μg: WO03/087366) and reporter plasmid pACREpluc (2 μg; WO03/087366) were co-transferred into 6×10^6 cells of KJMGER8 (WO03/087366) by electroporation. The resultant transformant was suspended in 8 mL of a RPMI1640-ITPSG medium [RPMI medium (Nissui Pharmaceutical Co., Ltd.) containing 6 mmol/L of L-glutamine (Invitrogen Corp.), 100 units/ml of penicillin (Invitrogen Corp.), 100 μg/ml of streptomycin (Invitrogen Corp.), 10 mmol/L of N-2-hydroxyethylpiperazine-N′-2-ethanesulfonic acid (HEPES) (Nacalai Tesque Inc.), 3 μg/ml of insulin (Sigma Co. Ltd.), 5 μg/ml of transferrin (Sigma Co. Ltd.), 5 mmol/L of sodium pyruvate (Wako Pure Chemical Industries, Ltd.), 125 nmol/L of selenious acid (Nacalai Tesque Inc.), and 1 mg/ml of galactose (Nacalai Tesque Inc.)], followed by culture in a CO^2 incubator at 37° C. for 24 hours. After the culture, blasticidin S (Funakoshi Co., Ltd., 2.0 μg/ml), hygromycin B (Wako Pure Chemical Industries, Ltd., 300 μg/ml), and geneticin (Nacalai Tesque Inc., 500 μg/ml) were added to the culture solution, followed by further culture for 14 days to prepare a stable transformant (referred to as “GPR4 assay cells”). The transformant was subcultured in a RPMI1640-ITPSG medium containing blastocidin S (Funakoshi Co., Ltd., 2.0 μg/ml), hygromycin B (manufactured by Wako Pure Chemical Industries, Ltd., 300 μg/ml), and geneticin (Nacalai Tesque Inc., 500 μg/ml).
Similarly, control plasmid pAGal9-nd (2 μg; WO03/087366) and reporter plasmid pACREpluc (2 μg; WO03/087366) were co-transferred in KJMGER8 to prepare a stable transformant (referred to as “control cells”).
The resulting human GPR4 assay cells (expressing GPR4 by stimuli of 17β-estradiol) were seeded onto a white plate at a concentration of 10^5 cells per well. Then, 17β-estradiol (Sigma Co. Ltd.), which was diluted with a medium so that the concentration in the reaction solution was 10 nmol/L, and 1 μmol/L of test compound were added to each well, followed by reaction in a 5% CO2 incubator at 37° C. for 6 hours. Then, a Steady Glo Luciferase Assay System (Promega Co., Ltd.) solution was added to terminate the reaction, and the quantity of light emitted per second was measured by a TOP count (Packard, Meriden, Conn., USA).
The activity (GPR4 antagonism) of the test compound was shown by an inhibition rate calculated on the basis of counts (counts per second) in the presence or absence of 17β-estradiol according to the following equation:
[formula] wherein A, B, and C represent the following values: […]
A: counts when 17β-estradiol and test compound were added
B: counts when neither 17β-estradiol nor test compound was added
C: counts when only 17β-estradiol was added
In general terms: In a reporter assay the amount or activity of a reporter protein is the signal.

For series [2], the system named is LPC-induced neutrophil infiltration into airway. The experiment in a line: Inhibitory activity on LPC-induced neutrophil infiltration into airway (Test Example 3). To be noted: 10 mg/kg orally 1 hour before intratracheal LPC; BALF 6 hours after LPC; male BALB/c mice. Format: in vivo. On the procedure: Male BALB/c mice of 7-week old were intratracheally administered with 0.1 mL of a 1 mg/mL LPC solution prepared by dissolving in a 0.1% aqueous bovine serum albumin solution or a 0.1% aqueous bovine serum albumin solution (negative control group). Six hours after, bronchoalveola lavage was conducted, and the neutrophil infiltration in the recovered BALF was measured. In addition, Compound 118 or Compound 160 was suspended in a 0.5% aqueous methyl cellulose solution (solvent), and 10 mg/kg of the resultant suspension was orally administered to the mice 1 hour before LPC administration. In a […] control group, the solvent was administered instead of the test compound suspension. The infiltration of neutrophils was measured by measuring the number of cells in the recovered BALF with an automatic blood counter (Celltac α MEK-6158, Nihon Kohden Corporation, Tokyo) and then counting the number of neutrophils under a microscope using a smear prepared with Cytospin 3 (Shandon, Inc., Pittsburgh, Pa., USA). The number of neutrophils was calculated by multiplying the total number of cells by the percentage of the neutrophils. In this test, five mice per group were used for Compound 118, and six mice per group were used for Compound 160.

The test system is the same in series [3]. Kind of series: Inhibitory activity on LPC-induced neutrophil infiltration into airway (Test Example 2). The series is classed as in vivo. To be noted: 100 mg/kg orally 1 hour before intratracheal LPC; BALF 6 hours after LPC; male BALB/c mice. As to the method: male BALB/c mice of 7-week old were intratracheally administered with 0.1 ml of a 1 mg/mL LPC solution prepared by dissolving in a 0.1% aqueous bovine serum albumin solution or a 0.1% aqueous bovine serum albumin solution (negative control group). Six hours after, bronchoalveola lavage was conducted, and the neutrophil infiltration in the recovered BALF was measured. In addition, Compound 53 or Compound 81 was suspended in a 0.5% aqueous methyl cellulose solution (solvent), and 100 mg/kg of the resultant suspension was orally administered to the mice 1 hour before LPC administration. In a […] control group, the solvent was administered instead of the test compound suspension. The infiltration of neutrophils was measured by measuring the number of cells in the recovered BALF with an automatic blood counter (Celltac α MEK-6158, Nihon Kohden Corporation, Tokyo) and then counting the number of neutrophils under a microscope using a smear prepared with Cytospin 3 (Shandon, Inc., Pittsburgh, Pa., USA). The number of neutrophils was calculated by multiplying the total number of cells by the percentage of the neutrophils. In this test, six mice per group were used for Compound 53, and six or seven mice per group were used for Compound 81.

Where a name gives a salt, the structure may show the parent alone.

T1 sequence (P46093 whole entry): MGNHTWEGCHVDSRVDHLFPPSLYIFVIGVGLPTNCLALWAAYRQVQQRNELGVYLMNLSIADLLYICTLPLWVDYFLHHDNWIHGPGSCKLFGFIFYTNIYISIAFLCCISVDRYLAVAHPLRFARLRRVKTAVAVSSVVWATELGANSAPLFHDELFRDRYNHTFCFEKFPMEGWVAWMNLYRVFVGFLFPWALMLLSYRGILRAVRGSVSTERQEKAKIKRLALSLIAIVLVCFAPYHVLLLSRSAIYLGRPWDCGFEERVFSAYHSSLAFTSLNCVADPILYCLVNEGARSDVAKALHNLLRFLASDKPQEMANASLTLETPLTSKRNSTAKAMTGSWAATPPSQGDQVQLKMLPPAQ

By inhibition is commonly meant the change of the read-out against control, counted positive when it falls. For the compound `Cc1cc(C)c2nc(C)n(Cc3ccc(NCC4CCN(C5CCOCC5)CC4)cc3)c2n1` [Compound 158, 4-[4-(2,5,7-Trimethyl-3H-imidazo[4,5-b]pyridin-3-ylmethyl)phenylamino]methyl-1-(4-tetrahydropyranyl)piperidine], in series [1], the inhibition at 1 µM worked out at 83%.
On to `CCc1nc2c(C)cc(C)nc2n1Cc1ccc(N[C@H]2CC[C@H](C(=O)NCCN3CCCC3)CC2)cc1` [Compound 118, trans-4-[4-(2-Ethyl-5,7-dimethyl-3H-imidazo[4,5-b]pyridin-3-ylmethyl)phenylamino]cyclohexanecarboxylic acid [2-(pyrrolidin-1-yl)ethyl]amide], for which the inhibition at 1 µM in series [1] amounted to 97%. In series [2], the “suppression of increase in the number of neutrophils in BALF as compared with the positive control group” value (“suppression of increase” for short) was found to be 60%.
As for `Cc1cc(C)c2nc(C)n(Cc3ccc(NCC4CCN(C5CCN(C)CC5)CC4)cc3)c2n1` [Compound 160, 4-[4-(2,5,7-Trimethyl-3H-imidazo[4,5-b]pyridin-3-ylmethyl)phenylamino]methyl-1-(1-methylpiperidin-4-yl)piperidine], in series [2], the “suppression of increase” value is listed as 74%.
As to `CCc1nc2c(C)cc(C)nc2n1Cc1ccc(NC(=O)OC(C)(C)C)cc1` [Compound 81], the “Inhibition rate (%)” value in series [1] was 77%. Also, in series [3], the “suppression of increase” value came out at 42%.
As for `CCc1nc2c(C)cc(C)nc2n1Cc1ccc(NCC2CCNCC2)cc1` [Compound 143, 4-[4-(2-Ethyl-5,7-dimethyl-3H-imidazo[4,5-b]pyridin-3-ylmethyl)phenylamino]methylpiperidine], in series [1], the inhibition at 1 µM was 97%.
For orientation: melting point means the temperature, or range, at which the solid turns liquid. `CCc1nc2c(C)cc(C)nc2n1Cc1cccc(C(=NO)c2cccc(CN3CCCC3)c2)c1` [Compound 24, 1-(3-{[3-(2-Ethyl-5,7-dimethylimidazo[4,5-b]pyridin-3-ylmethyl)phenyl]hydroxyiminomethyl}benzyl)pyrrolidine] gave a melting point of 231 to 236 °C. The inhibition at 1 µM in series [1] came out at 34%.
With `CCc1nc2c(C)cc(C)nc2n1Cc1cnc(Nc2ccccc2)nc1` (as salt: hydrochloride), the melting point was 146 to 150 °C.
For `CCc1nc2c(C)cc(C)nc2n1Cc1cccc(Nc2ccccc2)c1` [Compound 98], the “Inhibition rate (%)” value in series [1] was found to be 37%.
Take `CCc1nc2c(C)cc(C)nc2n1Cc1ccc(NC(=O)c2cccc3ccccc23)cc1` [Compound 53]: the “Inhibition rate (%)” value in series [1] stood at 74%. Also, the “suppression of increase” value in series [3] worked out at 47%.
The compound `CCc1nc2c(C)cc(C)nc2n1Cc1ccc(C(=O)c2ccccc2)cc1` [Compound 1, 4-(2-Ethyl-5,7-dimethylimidazo[4,5-b]pyridin-3-ylmethyl)benzophenone] gave a melting point of 98 °C. In addition, the inhibition at 1 µM in series [1] was found to be 31%.
Consider `CCc1nc2c(C)cc(C)nc2n1Cc1ccc(Nc2ccccc2)cc1` [Compound 97, {4-(2-Ethyl-5,7-dimethylimidazo[4,5-b]pyridin-3-ylmethyl)phenyl}phenylamine], for which, in series [1], the inhibition at 1 µM turned out to be 45%.
